Like-named read-outs stand apart in the source and are kept apart here. Each block holds one compound with its values, some of them ahead of it.
What was measured:
Assay in all cases: biochemical
Design in all cases: DiscoveRx KINOMEscan active site-directed competition binding; percent of control kinase bound to immobilised ligand
SRPK1 = SRPK1 (Homo sapiens, UniProt Q96SB4)
KIT(D816H) = KIT(D816H) (Homo sapiens, UniProt P10721, D816H)
ASK2 = target: T1, ASK2 (Homo sapiens, UniProt O95382)
T1 construct: gene MAP3K6
T1 sequence (O95382 1-1288): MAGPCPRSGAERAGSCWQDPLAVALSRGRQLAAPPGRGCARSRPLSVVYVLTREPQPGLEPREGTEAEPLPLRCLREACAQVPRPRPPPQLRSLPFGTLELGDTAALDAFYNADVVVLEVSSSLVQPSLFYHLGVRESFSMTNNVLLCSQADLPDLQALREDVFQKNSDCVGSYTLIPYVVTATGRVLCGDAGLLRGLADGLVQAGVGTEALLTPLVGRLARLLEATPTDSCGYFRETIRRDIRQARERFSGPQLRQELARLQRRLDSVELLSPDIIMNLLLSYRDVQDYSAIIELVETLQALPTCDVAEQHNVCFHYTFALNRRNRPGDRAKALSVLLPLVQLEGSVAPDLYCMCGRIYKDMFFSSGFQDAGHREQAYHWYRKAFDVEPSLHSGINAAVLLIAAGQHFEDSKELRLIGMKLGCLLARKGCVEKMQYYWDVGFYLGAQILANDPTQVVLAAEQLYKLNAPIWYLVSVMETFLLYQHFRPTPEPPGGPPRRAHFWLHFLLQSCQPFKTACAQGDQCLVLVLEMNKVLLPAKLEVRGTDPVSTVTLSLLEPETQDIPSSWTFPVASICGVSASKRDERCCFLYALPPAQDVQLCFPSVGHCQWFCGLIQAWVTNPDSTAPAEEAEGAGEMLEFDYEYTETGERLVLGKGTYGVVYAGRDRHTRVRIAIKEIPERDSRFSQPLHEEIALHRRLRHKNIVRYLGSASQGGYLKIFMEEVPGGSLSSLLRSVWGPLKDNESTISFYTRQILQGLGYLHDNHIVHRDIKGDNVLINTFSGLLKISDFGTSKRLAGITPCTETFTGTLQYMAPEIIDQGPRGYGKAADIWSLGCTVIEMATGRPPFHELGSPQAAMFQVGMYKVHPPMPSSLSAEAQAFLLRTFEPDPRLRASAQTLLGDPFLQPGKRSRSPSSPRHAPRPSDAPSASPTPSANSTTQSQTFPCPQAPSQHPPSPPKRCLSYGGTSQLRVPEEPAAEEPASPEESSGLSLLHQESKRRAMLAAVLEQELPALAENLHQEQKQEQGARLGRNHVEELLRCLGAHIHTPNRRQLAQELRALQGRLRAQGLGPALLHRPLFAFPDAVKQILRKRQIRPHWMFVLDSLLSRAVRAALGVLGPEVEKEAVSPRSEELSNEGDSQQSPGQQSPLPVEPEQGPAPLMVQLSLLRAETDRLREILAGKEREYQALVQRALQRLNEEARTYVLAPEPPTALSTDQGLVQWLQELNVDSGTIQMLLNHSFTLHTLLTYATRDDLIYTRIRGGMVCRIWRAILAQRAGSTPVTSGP

JNK2 = target: T2, JNK2 (Homo sapiens, UniProt P45984)
T2 construct: gene MAPK9
T2 sequence (P45984 whole entry): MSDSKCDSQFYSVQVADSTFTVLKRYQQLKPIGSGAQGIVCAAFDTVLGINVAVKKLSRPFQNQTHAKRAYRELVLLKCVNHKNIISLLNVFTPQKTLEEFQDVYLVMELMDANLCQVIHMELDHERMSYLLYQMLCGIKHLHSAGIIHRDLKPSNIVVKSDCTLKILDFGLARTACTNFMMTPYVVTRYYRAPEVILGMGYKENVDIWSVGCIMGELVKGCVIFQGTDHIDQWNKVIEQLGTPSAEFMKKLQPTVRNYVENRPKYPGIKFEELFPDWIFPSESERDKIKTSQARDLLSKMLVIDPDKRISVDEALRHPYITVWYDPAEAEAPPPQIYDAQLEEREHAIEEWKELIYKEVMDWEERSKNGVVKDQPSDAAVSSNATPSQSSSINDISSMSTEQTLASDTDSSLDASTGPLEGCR

BMPR1B = BMPR1B (Homo sapiens, UniProt O00238)
BMPR1B, sequence (O00238 whole entry): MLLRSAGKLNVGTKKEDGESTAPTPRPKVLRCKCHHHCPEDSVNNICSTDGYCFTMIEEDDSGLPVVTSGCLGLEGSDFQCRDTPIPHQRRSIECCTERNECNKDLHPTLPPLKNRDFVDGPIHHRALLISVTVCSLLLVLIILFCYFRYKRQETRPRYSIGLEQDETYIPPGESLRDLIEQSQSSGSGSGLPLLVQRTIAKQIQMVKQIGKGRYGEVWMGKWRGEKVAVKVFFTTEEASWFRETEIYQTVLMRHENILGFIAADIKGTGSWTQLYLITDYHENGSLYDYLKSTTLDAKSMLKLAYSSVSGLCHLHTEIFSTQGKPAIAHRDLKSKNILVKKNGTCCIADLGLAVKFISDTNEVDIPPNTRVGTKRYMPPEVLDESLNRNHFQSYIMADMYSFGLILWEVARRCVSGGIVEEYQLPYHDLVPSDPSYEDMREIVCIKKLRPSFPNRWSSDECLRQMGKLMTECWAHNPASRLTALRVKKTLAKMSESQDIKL

PRKG1 = target: T3, PRKG1 (Homo sapiens, UniProt Q13976)
T3 sequence (Q13976 1-671): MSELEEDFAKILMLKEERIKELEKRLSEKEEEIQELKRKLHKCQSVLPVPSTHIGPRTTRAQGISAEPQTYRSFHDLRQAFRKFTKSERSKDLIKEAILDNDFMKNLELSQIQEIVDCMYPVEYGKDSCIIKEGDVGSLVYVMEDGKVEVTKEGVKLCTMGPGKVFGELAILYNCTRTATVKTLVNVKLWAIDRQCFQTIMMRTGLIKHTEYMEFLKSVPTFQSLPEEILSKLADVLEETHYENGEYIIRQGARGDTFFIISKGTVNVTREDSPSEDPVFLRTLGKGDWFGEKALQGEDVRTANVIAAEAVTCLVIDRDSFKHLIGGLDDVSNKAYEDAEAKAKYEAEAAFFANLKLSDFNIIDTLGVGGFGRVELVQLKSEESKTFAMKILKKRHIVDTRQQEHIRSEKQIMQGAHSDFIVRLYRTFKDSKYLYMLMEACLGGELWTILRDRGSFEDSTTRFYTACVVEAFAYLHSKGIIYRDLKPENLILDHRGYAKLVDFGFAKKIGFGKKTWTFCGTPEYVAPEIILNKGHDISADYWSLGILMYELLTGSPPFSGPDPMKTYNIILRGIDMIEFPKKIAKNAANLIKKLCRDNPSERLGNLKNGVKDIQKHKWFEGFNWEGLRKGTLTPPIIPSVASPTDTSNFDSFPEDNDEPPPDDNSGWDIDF

[1] = target: T4, ABL1(T315I)-phosphorylated (Homo sapiens, UniProt P00519, T315I)
T4 construct: phosphorylated

[2] = read-out: Olaparib / %Ctrl @ 10000nM
[3] = read-out: Talazoparib (BMN 673) / %Ctrl @ 10000nM
[4] = read-out: Rucaparib / %Ctrl @ 10000nM, binding competition, % of control
[5] = read-out: Niraparib (MK-4827) / %Ctrl @ 10000nM

KIT(D816H), sequence (P10721 whole entry D816H): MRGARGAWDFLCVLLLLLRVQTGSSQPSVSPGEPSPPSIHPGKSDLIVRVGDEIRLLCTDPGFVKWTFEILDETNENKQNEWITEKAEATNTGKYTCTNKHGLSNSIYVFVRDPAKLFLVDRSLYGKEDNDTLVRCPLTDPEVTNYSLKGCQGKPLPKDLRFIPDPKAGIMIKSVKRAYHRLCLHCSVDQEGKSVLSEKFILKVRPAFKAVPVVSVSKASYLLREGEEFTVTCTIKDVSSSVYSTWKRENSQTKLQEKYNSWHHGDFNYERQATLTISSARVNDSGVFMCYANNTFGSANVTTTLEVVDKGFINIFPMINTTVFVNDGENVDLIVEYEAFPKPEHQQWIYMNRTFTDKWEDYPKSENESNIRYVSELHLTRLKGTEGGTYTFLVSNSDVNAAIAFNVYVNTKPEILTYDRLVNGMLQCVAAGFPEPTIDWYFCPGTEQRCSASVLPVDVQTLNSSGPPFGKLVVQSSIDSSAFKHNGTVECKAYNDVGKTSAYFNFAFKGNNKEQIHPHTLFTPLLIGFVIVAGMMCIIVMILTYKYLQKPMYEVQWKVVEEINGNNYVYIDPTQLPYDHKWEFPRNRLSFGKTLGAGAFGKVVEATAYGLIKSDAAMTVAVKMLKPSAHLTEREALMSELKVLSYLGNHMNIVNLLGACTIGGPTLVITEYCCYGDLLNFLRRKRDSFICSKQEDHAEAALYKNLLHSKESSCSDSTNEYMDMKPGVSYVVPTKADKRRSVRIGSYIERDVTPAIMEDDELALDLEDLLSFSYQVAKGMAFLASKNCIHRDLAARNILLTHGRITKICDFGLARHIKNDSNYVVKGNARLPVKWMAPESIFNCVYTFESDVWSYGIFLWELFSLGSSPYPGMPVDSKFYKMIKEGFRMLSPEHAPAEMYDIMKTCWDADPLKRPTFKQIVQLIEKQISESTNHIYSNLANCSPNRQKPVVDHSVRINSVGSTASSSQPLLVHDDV
SRPK1, sequence (Q96SB4 whole entry): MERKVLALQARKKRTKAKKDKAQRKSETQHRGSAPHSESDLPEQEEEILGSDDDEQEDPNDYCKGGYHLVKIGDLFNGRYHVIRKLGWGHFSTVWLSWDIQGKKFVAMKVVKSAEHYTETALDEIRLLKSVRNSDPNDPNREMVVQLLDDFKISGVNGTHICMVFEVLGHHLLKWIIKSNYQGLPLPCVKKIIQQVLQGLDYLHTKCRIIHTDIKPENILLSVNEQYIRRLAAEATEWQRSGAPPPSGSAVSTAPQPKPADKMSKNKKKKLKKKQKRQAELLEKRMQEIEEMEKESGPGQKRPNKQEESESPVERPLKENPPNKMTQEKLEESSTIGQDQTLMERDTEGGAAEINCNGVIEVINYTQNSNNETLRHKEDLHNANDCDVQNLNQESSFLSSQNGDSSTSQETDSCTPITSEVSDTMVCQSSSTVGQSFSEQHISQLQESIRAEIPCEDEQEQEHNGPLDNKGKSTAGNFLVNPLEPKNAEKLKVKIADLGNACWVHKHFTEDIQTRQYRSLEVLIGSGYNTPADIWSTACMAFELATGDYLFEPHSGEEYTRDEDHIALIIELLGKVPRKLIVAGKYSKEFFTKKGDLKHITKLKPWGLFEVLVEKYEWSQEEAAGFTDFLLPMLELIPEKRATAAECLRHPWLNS

percent of control binding at 10 µM (SRPK1; [2]): 98%
percent of control binding at 10 µM (KIT(D816H); [2]): 96%
percent of control binding at 10 µM (ASK2; [2]): 80%
percent of control binding at 10 µM (JNK2; [2]): 81%
percent of control binding at 10 µM (BMPR1B; [2]): 81%
percent of control binding at 10 µM (PRKG1; [2]): 100%
percent of control binding at 10 µM [1, 2]: 87%
Structure (SMILES): O=C(c1cc(Cc2n[nH]c(=O)c3ccccc23)ccc1F)N1CCN(C(=O)C2CC2)CC1 [Olaparib]

percent of control binding at 10 µM (SRPK1; [3]): 100%
percent of control binding at 10 µM (KIT(D816H); [3]): 100%
percent of control binding at 10 µM (ASK2; [3]): 85%
percent of control binding at 10 µM (JNK2; [3]): 95%
percent of control binding at 10 µM (BMPR1B; [3]): 100%
percent of control binding at 10 µM (PRKG1; [3]): 57%
percent of control binding at 10 µM [1, 3]: 100%
Structure (SMILES): Cn1ncnc1[C@H]1c2n[nH]c(=O)c3cc(F)cc(c23)N[C@@H]1c1ccc(F)cc1 [Talazoparib]

percent of control binding at 10 µM (SRPK1; [4]): 97%
percent of control binding at 10 µM (KIT(D816H); [4]): 82%
percent of control binding at 10 µM (ASK2; [4]): 77%
percent of control binding at 10 µM (JNK2; [4]): 68%
percent of control binding at 10 µM (BMPR1B; [4]): 80%
percent of control binding at 10 µM (PRKG1; [4]): 91%
percent of control binding at 10 µM [1, 4]: 67%
Structure (SMILES): CNCc1ccc(-c2[nH]c3cc(F)cc4c3c2CCNC4=O)cc1 [Rucaparib]

Structure (SMILES): NC(=O)c1cccc2cn(-c3ccc([C@@H]4CCCNC4)cc3)nc12 [Niraparib]
percent of control binding at 10 µM (SRPK1; [5]): 77%
percent of control binding at 10 µM (KIT(D816H); [5]): 94%
percent of control binding at 10 µM (ASK2; [5]): 98%
percent of control binding at 10 µM (JNK2; [5]): 95%
percent of control binding at 10 µM (BMPR1B; [5]): 87%
percent of control binding at 10 µM (PRKG1; [5]): 100%
percent of control binding at 10 µM [1, 5]: 95%

— publication PMC7026418, “The kinase polypharmacology landscape of clinical PARP inhibitors” (Scientific Reports, 2020)
